# Results taken from patent publication US9487479B2, “Small molecule inhibitors of N-terminus activation of the androgen receptor” (The University of British Columbia, priority 2008, dated 2016).
# Experiments:
# [1] = molecular target: T1, progesterone receptor (PR) (Homo sapiens, UniProt P06401); test: PRE-luciferase reporter assay in LNCaP cells transfected with PRβ; format: cell-based; settings: 5 μg/ml, progesterone 10 nM, 24 h
# T1 construct: Cells were co-transfected with expression plasmids for full-length hGR and PRβ; expressed in transfected cells; host or cells: LNCaP cells
# T1 sequence (P06401 1-933): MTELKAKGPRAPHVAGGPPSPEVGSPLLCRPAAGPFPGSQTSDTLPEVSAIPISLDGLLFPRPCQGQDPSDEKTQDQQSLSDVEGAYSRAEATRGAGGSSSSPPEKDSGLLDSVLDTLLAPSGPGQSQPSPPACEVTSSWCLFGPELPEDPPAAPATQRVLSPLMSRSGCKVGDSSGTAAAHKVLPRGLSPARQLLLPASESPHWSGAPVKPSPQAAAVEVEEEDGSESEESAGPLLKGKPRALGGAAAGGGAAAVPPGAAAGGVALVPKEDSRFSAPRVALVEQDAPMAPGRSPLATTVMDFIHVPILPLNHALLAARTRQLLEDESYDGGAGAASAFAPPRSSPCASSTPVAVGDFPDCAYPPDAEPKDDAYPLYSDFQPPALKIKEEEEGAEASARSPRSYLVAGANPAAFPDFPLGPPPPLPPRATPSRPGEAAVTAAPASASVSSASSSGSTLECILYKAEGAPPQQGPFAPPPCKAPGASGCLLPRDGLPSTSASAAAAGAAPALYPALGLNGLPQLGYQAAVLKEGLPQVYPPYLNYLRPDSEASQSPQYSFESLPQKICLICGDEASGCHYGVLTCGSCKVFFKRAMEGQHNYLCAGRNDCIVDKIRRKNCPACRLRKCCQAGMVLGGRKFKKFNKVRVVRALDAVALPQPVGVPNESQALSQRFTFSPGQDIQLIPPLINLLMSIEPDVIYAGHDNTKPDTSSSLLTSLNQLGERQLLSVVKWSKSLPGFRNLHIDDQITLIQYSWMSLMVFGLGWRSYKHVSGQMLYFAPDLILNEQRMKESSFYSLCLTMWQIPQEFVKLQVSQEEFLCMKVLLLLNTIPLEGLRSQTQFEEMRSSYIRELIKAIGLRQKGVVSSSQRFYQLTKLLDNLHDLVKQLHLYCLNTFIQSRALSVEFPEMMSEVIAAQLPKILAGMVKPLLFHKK
# From the text: White bars represent no steroid (ethanol control). Wherein glucocorticoid receptor (GR) and progesterone receptor (PR).
# Sequence similarities of amino acids in the AR with related human steroid receptors (glucocorticoid receptor (GR) and progesterone receptor (PR)) are significant in some domains such as the DNA-binding-domain (DBD). Although the AR-NTD shares less than 15% homology with the PR and GR, these receptors do interact with some of the same proteins such as SRC-1 (steroid receptor coactivator-1). Therefore, reporter gene assays were used to determine if candidate compounds that block AR activity have any effect on GR and PR transcriptional activity. Cells were co-transfected with expression plasmids for full-length hGR and PRβ and the relative reporter (i.e., pGR-Luc or PRE-E1b-Luc reporters). Cells were then treated with ethanol vehicle, dexamethasone (GR), 4-pregnene-3,20 dione (progesterone) (PR) followed by measurement of luciferase activity.
# PSA mRNA = test: Androgen-induced PSA mRNA levels in LNCaP cells (qRT-PCR); format: cell-based, human; settings: 10 μg/ml, 1 hour pretreatment, R1881 1 nM, 16 hours
# Method: Levels of PSA mRNA were measured by quantitative real-time (qRT)-PCR and normalized to levels of GAPDH mRNA (housekeeping gene). White bar: no R1881. Black bars: R1881 (1 nM). MNE: mean normalized expression. DMSO (no R1881) was arbitrarily set at 1.0 for each individual experiment. Bars represent the mean±SE from 3 separate experiments using triplicate technical samples from each experiment.
# PSA is an androgen-regulated gene containing several well-characterized androgen response elements (AREs) in the enhancer and promoter regions. Levels of PSA mRNA are induced by androgen by a mechanism dependent androgen receptor. To test if sintokamides would also block endogenous gene expression induced by androgen, levels of PSA mRNA were measured in response to the synthetic androgen R1881.
# [2] = Animal body weight during the LNCaP xenograft experiment; format: in vivo, mice
# Method: The subcutaneous xenograft model was used to test whether sintokamides that inhibit activation of the androgen receptor in vitro have any effect on these tumors. CB3.1 was tested in vivo using the LNCaP subcutaneous xenograft model. […] LNCaP human prostate cancer cells express endogenous androgen receptor (AR) and prostate-specific antigen (PSA), and progress to androgen independence in castrated hosts. LNCaP cells (10^6/ml) were implanted subcutaneously into NOD-SCID male mice that were at least 8 weeks in age. The cells were suspended in 75 μl of RPMI medium 1640 (5% FBS) with 75 μl of Matrigel and injected into the flank region of the host under anesthesia. LNCaP cells were implanted subcutaneously into NOD-SCID male mice and the animals were castrated when the tumors were approximately 100 mm^3 (mean=[…]; n=18) and randomized into two groups. One week after castration the animals were treated every 3 days with an intratumoral dose of 30 mg/kg body weight of CB3.1 or matching volume of vehicle (control, DMSO). […] Fifteen days after the first injection of CB3.1, the tumors were 111.81%±38.12 the tumor volume on the day of the 1st injection. While 15 days after injection of DMSO, the tumors were 180.27%±111.67 the tumor volume on the day of the 1st injection. Serum PSA provides an indication of prognosis. For animals receiving CB3.1, serum PSA was 98.47%±170.51 on day 15 after the 1st injection. […] Tumor volume and serum PSA values were consistent with CB3.1 reducing tumor burden and serum PSA compared to vehicle-treated animals.
smiles,measurement,setting,value
"CCC(=O)N[C@H](C[C@H](C)C(Cl)(Cl)Cl)C(=O)N1C(=O)C=C(OC)[C@@H]1C[C@H](C)C(Cl)Cl [CB3.1, Sintokamide A]",PRE-luciferase activity in response to ligand,[1],did not inhibit
same,inhibition of androgen-induced levels of PSA mRNA,PSA mRNA,inhibit
same,change in animal body weight,"[2]; duration of the experiment, intratumoral 30 mg/kg every 3 days",No change in animal body weight
same,"animal body weight, finish","[2]; finish of experiment, intratumoral 30 mg/kg every 3 days",25.0±1.4 grams
same,"animal body weight, start",[2]; start of experiment,24.6±1.1 grams
